The values below come from patent US20230248744A1, “25-HYDROXYVITAMIN D2 AND/OR D3 FOR USE IN OBESITY” (CARBOGEN AMCIS B.V., priority 2020, published 2023).

Like-named read-outs stand apart in the source and are kept apart here. Bounds are passed on as bounds.

For data set [1] the following is noted: cited from earlier work.
The conditions of data set [2]: cited from earlier work. The source holds these as a separate data set.
The conditions of data set [3]: vitamin D deficient postmenopausal women; single p.o. bolus of 140 μg of each substance; cited from earlier work.
The conditions of data set [4]: cited from earlier work. This is another data set of the same source.
The conditions of data set [5]: single or multiple oral doses of 1250 μg vitamin D, or a dose of 900 μg 25(OH)D3; cited from earlier work.
Data set [6] in a line: Double-blind randomized crossover pharmacokinetic study, single oral 900 μg vitamin D3 or 25(OH)D3. It is filed as in vivo, human. The conditions noted are these: for Cmax / Tmax / concentration at 14 days / half-life / AUC: both sexes, human, serum, po, single oral 900 μg, mean ± SEM; for Cmax / Tmax / half-life / AUC: 900 ug; for concentration at 14 days: 900 μg, read-out: Ctrough (trough level at day 14); for half-life: read-out: T1/2 (elimination half-life) (converted). On the procedure:
The conclusions as presented herein are based on the following experiments: In a double-blinded cross-over study single high dosages (900 μg total in two soft gel capsules containing 450 μg) of either vitamin D3 or 25(OH)D3 were administered to vitamin D-deficient volunteers including healthy controls as well as subjects with a history of malabsorption. At the outset, the BMI was determined. Blood samples were then taken at baseline and at 2, 4, 6, 8, and 12 hours as well as 1, 2, 3, 7, and 14 days after administration (FIG. 2). All the samples were analyzed for their contents in vitamin D3 per se as well as 25(OH)D3. […] In addition, peak levels were more rapidly reached with 25(OH)D3 than with vitamin D3 (see FIG. 5). The immediate increase in serum 25(OH)D3 compared to the delayed increase observed with vitamin D3 supports the concept that 25(OH)D3 is being rapidly absorbed from the small intestine into the portal circulation, whereas vitamin D3 first needs to be incorporated into the chylomicrons which are absorbed into the lymphatic system.
The pharmacokinetic parameters of orally administered 25(OH)D3 and vitamin D3 (both provided for formulation in form of visually identical soft-gel pills) were studied based on the corresponding serum concentration-time curves in healthy adults and adults with a history of intestinal malabsorption (see FIG. 2). Cinical safety has been evaluated by monitoring serum calcium, phosphorus, parathyroid hormone (PTH) and 25(OH)D levels at the beginning and end of the study. Furthermore, the distribution of supplemented 25(OH)D3 (or 25(OH)D2) into adipose tissue and the role it is playing there was also studied.
Serum levels of calcium, phosphorus, albumin, creatinine and intact parathyroid hormone (iPTH) were determined at baseline and at the end of each 14-day pharmacokinetic study (see Table 4). The pharmacokinetic parameters have been determined by evaluating the serum concentration-time curves in patients with malabsorption syndrome and healthy controls (Tables 5 and 6).
The primary outcomes of the study are the serum pharmacokinetic parameters of 25(OH)D3 and vitamin D3 after a single oral administration of 900 μg of each in a double-blind randomized crossover study.
Adult patients (18 years and older) with a history of intestinal malabsorption (n=10) and healthy adult volunteers (n=10); (of both sexes and all ethnicities) has been recruited in this randomized double-blinded crossover study. The BMI has been determined and recorded at baseline. All subjects have been prescreened for 25(OH)D levels to include subjects with 25(OH)D<30 ng/mL. The subjects have been randomized to receive two oral doses of 450 μg taken simultaneously (total 900 μg) of either vitamin D3 or 25(OH)D3. Blood samples were taken at baseline and at 2, 4, 6, 8, 12 hours and days 1, 2, 3, 7 and 14. There was a two weeks washout period before the subject received in a double blinded manner, two oral doses of 450 μg taken simultaneously (total 900 μg) of either 25(OH)D3 or vitamin D3 (depending on which one they took in the randomization) any time after the 2 week washout. Blood samples were taken at baseline and at 2, 4, 6, 8, 12 hours and days 1, 2, 3, 7 and 14 days. Serum levels of calcium, phosphorus, albumin, creatinine, and intact parathyroid hormone (iPTH) were obtained at baseline and at day 14 for each arm (or within a reasonable time if the study participant was unable to come on the exact day).
The individuals participating in the study had, after signing a consent form, been randomized by a computer randomization chart in a blinded manner to receive two oral doses of 450 μg taken simultaneously (total 900 μg) of either vitamin D3 or 25(OH)D3. Blood samples have been taken at baseline and at 2, 4, 6, 8, 12 hours and days 1, 2, 3, 7 and 14. […]

Setting [7] is: healthy participants with higher BMI (N = 5).
Where [8] appears, read: healthy participants with lower BMI (N = 5).
Setting [9] is: patients with fat malabsorption (N = 6).

For vitamin D, the “peak serum vitamin D concentration” value in data set [1] (single oral dose of 1.25 mg (50'000 IU), baseline less than 5 ng/mL) was “over 50 ng/mL”. Also, in data set [1] (single oral dose of 1.25 mg), the “time of fall of serum vitamin D to baseline levels” value is recorded as no more than 3 days and the “time of peak serum vitamin D concentration” value is reported as no more than 12 h.
For the molecule `C=C1CC[C@H](O)C/C1=C/C=C1\CCC[C@]2(C)[C@@H]([C@H](C)CCCC(C)(C)O)CC[C@@H]12` [25-hydroxyvitamin D3], the “power of oral calcifediol relative to oral cholecalciferol (vitamin D3)” value in data set [2] is “three- to five-time more powerful”. For the same molecule, in data set [3], the “Cmax increase over baseline of 25(OH)D3” value is given as 24.7 ng/mL. Further, in data set [4] (after bolus intravenous dose), the “increase of 25(OH)D by 24 hours” value is 40 ng/mL. Besides, in data set [4] (bolus intravenous 448 μg or 900 μg slow release), the toxicity entry is on record as “No toxicity was observed”. Moreover, in data set [4] (bolus intravenous dose of 448 μg), the “increase of peak concentration of 25(OH)D above baseline” value is “approximately 110 ng/mL”. Further, the “toxicity in pharmacokinetic study” value in data set [4] (oral single dose of 900 μg) is listed as “did not show any untoward toxicity”. In data set [5], the reports of toxicity result is on record as “toxicity has never been reported”. In addition, the “time at which the peak of the serum concentration is reached” value in data set [6] (FIG. 5, oral 900 μg) is roughly 8 h. For the same molecule, in data set [6] (after administration of the respective product, FIGS. 3a and b), the “bioavailability in subjects with a history of vitamin D/fat malabsorption” value is “almost normal”. For the same molecule, the Cmax in data set [6] (healthy participants (N = 10)) was 23.1 ± 4.6 ng/mL; in data set [6] (setting [7]), 21.4 ± 8 ng/mL; in data set [6] (setting [8]), 24.8 ± 5.5 ng/mL; in data set [6] (setting [9]), 23.2 ± 6.8 ng/mL. The time of peak concentration (Tmax) was determined as 11.2 ± 4.1 h in data set [6] (healthy participants (N = 10)), 15.2 ± 8.2 h in data set [6] (setting [7]), 7.2 ± 0.5 h in data set [6] (setting [8]) and 5.3 ± 0.7 h in data set [6] (setting [9]). The concentration at 14 days in data set [6] (healthy participants (N = 10)) is 6.1 ± 1.3 ng/mL; in data set [6] (setting [7]), 4.6 ± 1.4 ng/mL; in data set [6] (setting [8]), 7.6 ± 2.1 ng/mL; in data set [6] (setting [9]), 6.7 ± 1.5 ng/mL. In addition, the half-life in data set [6] (healthy participants (N = 10)) was 60.6 ± 7.9 h; in data set [6] (setting [7]), 55 ± 10.7 h; in data set [6] (setting [8]), 66.2 ± 12.3 h; in data set [6] (setting [9]), 65.7 ± 29.9 h. Also, the exposure (AUC) in data set [6] (healthy participants (N = 10), serum level of the administered substance) stood at 3130 ± 545 ng·h/mL; in data set [6] (setting [7]), 2620 ± 855 ng·h/mL; in data set [6] (setting [8]) it was 3630 ± 690 ng·h/mL; in data set [6] (patients with fat malabsorption (N = 6), serum level of the administered substance) it was 2670 ± 735 ng·h/mL.
With `C=C1CC[C@H](O)C/C1=C/C=C1\CCC[C@]2(C)[C@@H]([C@H](C)/C=C/[C@H](C)C(C)C)CC[C@@H]12` [vitamin D2, ergocalciferol], in data set [1] (five of the seven patients with intestinal fat malabsorption, oral 50,000 IU), the “serum vitamin D concentration reached” value was no more than 10 ng/mL.
